Laboratory results reported in patent US20140030304A1, “Process for the Treatment of Synthetic Textiles with Cationic Biocides” (priority 2011, published 2014).
Read-outs that look alike come from different tables or passages of the source.

Test system: Escherichia coli
Assay: Quick-kill test (AATCC-100) on treated PP textile, Escherichia coli
Assay type: cell-based

Compound: CCCCCCCCCCCCCCCC[N+](C)(C)C.[Cl-] [CTAC, cetyltrimethylammonium chloride]
- log-reduction / killing, E. coli (textile spray-treated with aqueous solution of unformulated biocide (2-3% w), 5 min, positive control): 1.5 log
- biocide activity against E. coli (textile spray-treated with aqueous solution of unformulated biocide (2-3% w), after 2 h): very effective

Compound: polyhexamethylenbiguanid [PHMB]
- log-reduction / killing, E. coli: showed killing
